# Experimental data: patent US9994886B2, “Modified Epstein-Barr virus DNA polymerase and methods for isothermal DNA amplification” (priority 2013, dated 2018)
# T1: GST-BMRF1 fusion (Epstein-Barr virus, UniProt P03191)
# T1 construct: A GST fusion with BMRF1 residues 1-303 was constructed and expressed in E. coli BL21*DE3; made in house; host or cells: E. coli BL21*DE3
# T1 sequence (P03191 1-303): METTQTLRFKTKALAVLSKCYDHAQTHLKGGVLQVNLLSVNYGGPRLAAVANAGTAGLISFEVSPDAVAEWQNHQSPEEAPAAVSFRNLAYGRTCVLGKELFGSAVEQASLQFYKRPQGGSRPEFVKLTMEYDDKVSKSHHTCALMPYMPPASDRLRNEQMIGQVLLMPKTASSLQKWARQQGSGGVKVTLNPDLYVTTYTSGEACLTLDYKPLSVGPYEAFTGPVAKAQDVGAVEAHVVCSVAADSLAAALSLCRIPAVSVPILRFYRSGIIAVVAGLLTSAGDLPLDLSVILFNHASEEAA
# T2: GST-BMRF1(1-303) (Epstein-Barr virus, UniProt P03191)
# T2 construct: A GST fusion with BMRF1 residues 1-303 was constructed and expressed in E. coli BL21*DE3; made in house; host or cells: E. coli BL21*DE3
# T2 sequence (P03191 1-303): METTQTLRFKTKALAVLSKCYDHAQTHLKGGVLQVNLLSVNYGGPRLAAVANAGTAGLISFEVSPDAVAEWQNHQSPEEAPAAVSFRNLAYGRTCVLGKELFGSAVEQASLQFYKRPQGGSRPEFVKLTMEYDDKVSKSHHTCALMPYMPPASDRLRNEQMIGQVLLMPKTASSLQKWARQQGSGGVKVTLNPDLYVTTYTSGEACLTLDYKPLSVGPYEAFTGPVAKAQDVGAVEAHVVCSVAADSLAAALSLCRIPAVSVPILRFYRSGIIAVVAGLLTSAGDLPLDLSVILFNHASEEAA
# Tests used:
# [1] = system: singly-primed M13mp18 single-stranded DNA circle; conditions: cited from earlier work
# oligo dG:poly dC = assay: Activity on synthetic primer:template, GC preference; format: biochemical
# Text: EBVpol and the modified EBVpol of this invention have strong amplification activity on GC-rich regions of DNA sequences; EBV DNA polymerase has 29-fold greater activity on synthetic oligo dG:poly dC (primer:template) compared to oligo dA:poly dT. GC-rich DNA sequences are the most difficult-to-amplify DNA sequences. […] Thus, the GC-preference of EBVpol and its variants makes EBVpol and its variants preferred reagents for whole genome amplification (“WGA”).
# [2] = BALF5 combined with BMRF1; cited from earlier work
# EBVpol = target: T3, EBVpol (Epstein-Barr virus, UniProt P03198); assay: Inhibition of EBVpol activity at high salt; format: biochemical; conditions: 20 mM PAA
# T3 construct: Ac-BALF5 baculovirus vector, an expression plasmid vector bearing the full-length BALF5 gene; made in house; host or cells: Sf9 insect cells, recombinant baculoviruses pAc-BALF5 and pAc-BMRF1
# Description: (§1) When assayed in the presence of BMRF1, its activity on CT DNA at 100 mM ammonium sulfate was greater than 100-fold increased over its activity alone, in the absence of salt.
# GST = target: T4, GST (Schistosoma japonicum, UniProt P08515); assay: Non-specific binding of in vitro translated BALF5 to GST
# T4 construct: made in house; host or cells: E. coli (bacterial extract)
# Description: (§2) To determine if the extreme carboxyl terminus of the EBV BALF5 subunit is necessary for functional interaction with BMRF1, a series of deletions of the BALF5 open reading frame was constructed in the pYES-X2 vector and [^35S]-methionine labeled polypeptides were expressed by in vitro transcription-translation as described (Kiehl, A. and D. I. Dorsky, J Virol, 1995, 69(3): p. 1669-77). These radiolabeled BALF5-deletion polypeptides were then assayed for binding to GST-BMRF1(1-303) in 100 mM ammonium sulfate. In vitro translated BALF5 bound to GST-BMRF1(1-303) but not to GST alone.
# A GST fusion with BMRF1 residues 1-303 was constructed and expressed in E. coli BL21*DE3 as a soluble 58 kDa protein which bound specifically to glutathione-agarose. Glutathione agarose beads were incubated in bacterial extract containing either 27 kDa wild-type GST or 58 kDa GST-BMRF1 and extensively washed in PBS, or 50 mM Tris-HCl, pH 8.0 containing 0, 50, 100, 150, or 200 mM ammonium sulfate. The beads were then incubated in the same wash buffers in the presence of [^35S]-methionine labeled in vitro translated BALF5, and then the beads were washed extensively at the same salt concentrations as the incubations. The washed beads were boiled in SDS sample buffer and the eluted proteins were analyzed by SDS-PAGE/fluorography. […]
# [3] = system: activated calf thymus DNA; assay: DNA polymerase assay, incorporation of [32P]-dCMP into trichloroacetic acid-precipitable material; format: biochemical; conditions: 100 mM ammonium sulfate; polypeptides in equimolar ratios
# Description: The activity of the bacterially-expressed purified BMRF1(1-303)(“ΔC303”) polypeptide was examined in a DNA polymerase assay which measured incorporation of [^32P]-α-dCMP into trichloroacetic acid-precipitable material using activated calf thymus DNA and [^32P]-α-dCTP as the substrates in the presence of 100 mM ammonium sulfate (Tsurumi, T., T. Daikoku, and Y. Nishiyama, J Virol, 1994, 68(5): p. 3354-63). The BALF5 catalytic DNA polymerase subunit was obtained by expression in insect cells from the Ac-BALF5 baculovirus and purified by phosphocellulose and heparin affinity chromatography. The polypeptides were assayed in equimolar ratios and the specific activity (micromoles of dCMP incorporation per milligram of protein per hour) is shown in Table 3.
# The GST-BMRF1 (1-303) polypeptide was bound to glutathione-agarose as described previously and cleaved overnight with 1/50 (w/w) factor Xa (NEBioLabs, Ipswich, Mass.) in 1 mM CaCl2. The cleaved BMRF1 (1-303) was then purified on DNA-cellulose, eluting at 300-500 mM NaCl. SDS-PAGE analysis confirmed the size of the uncleaved GST-BMRF1 (1-303) and the purified cleaved BMRF1 (1-303). The purified BMRF1 (1-303) was then shown to stimulate purified baculovirus-expressed BALF5 in 100 mM ammonium sulfate (see Table 3).
# GST-BMRF1 fusion = target: T1, GST-BMRF1 fusion; assay: GST-BMRF1 fusion binding to BALF5 on glutathione agarose beads at varied salt
# Description: A GST fusion with BMRF1 residues 1-303 was constructed and expressed in E. coli BL21*DE3 as a soluble 58 kDa protein which bound specifically to glutathione-agarose. Glutathione agarose beads were incubated in bacterial extract containing either 27 kDa wild-type GST or 58 kDa GST-BMRF1 and extensively washed in PBS, or 50 mM Tris-HCl, pH 8.0 containing 0, 50, 100, 150, or 200 mM ammonium sulfate. The beads were then incubated in the same wash buffers in the presence of [^35S]-methionine labeled in vitro translated BALF5, and then the beads were washed extensively at the same salt concentrations as the incubations. The washed beads were boiled in SDS sample buffer and the eluted proteins were analyzed by SDS-PAGE/fluorography. Measures taken to avoid the copurification of nucleic acids included washing the column at 600 mM NaCl and application of DNase to the column. And SDS-PAGE analysis was used to monitor GST-BMRF1 (1-303). […] Non-specific binding of BALF5 to the 27 kDa GST was very weak and independent of salt concentration.
# GST-BMRF1(1-303) = target: T2, GST-BMRF1(1-303); assay: Binding of radiolabeled BALF5-deletion polypeptides to GST-BMRF1(1-303); conditions: 100 mM ammonium sulfate; [35S]-methionine labeled in vitro translated polypeptides
# Description: as §2
# [4] = system: activated calf thymus (CT) DNA; assay: DNA polymerase elongation activity of purified BALF5 on activated calf thymus DNA; format: biochemical
# Description: as §1
# T3 sequence (P03191 whole entry): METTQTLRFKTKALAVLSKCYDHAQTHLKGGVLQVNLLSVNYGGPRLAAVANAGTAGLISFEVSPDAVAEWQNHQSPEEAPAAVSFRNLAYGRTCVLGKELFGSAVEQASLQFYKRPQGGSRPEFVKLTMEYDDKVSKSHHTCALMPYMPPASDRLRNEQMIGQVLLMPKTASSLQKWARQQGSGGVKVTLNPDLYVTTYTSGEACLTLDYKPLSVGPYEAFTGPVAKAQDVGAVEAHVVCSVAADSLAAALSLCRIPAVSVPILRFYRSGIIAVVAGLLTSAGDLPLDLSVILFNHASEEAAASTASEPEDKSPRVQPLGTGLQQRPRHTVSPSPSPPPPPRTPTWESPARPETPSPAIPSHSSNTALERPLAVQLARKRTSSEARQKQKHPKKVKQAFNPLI
# T3 sequence (P03198 whole entry, added parts left off): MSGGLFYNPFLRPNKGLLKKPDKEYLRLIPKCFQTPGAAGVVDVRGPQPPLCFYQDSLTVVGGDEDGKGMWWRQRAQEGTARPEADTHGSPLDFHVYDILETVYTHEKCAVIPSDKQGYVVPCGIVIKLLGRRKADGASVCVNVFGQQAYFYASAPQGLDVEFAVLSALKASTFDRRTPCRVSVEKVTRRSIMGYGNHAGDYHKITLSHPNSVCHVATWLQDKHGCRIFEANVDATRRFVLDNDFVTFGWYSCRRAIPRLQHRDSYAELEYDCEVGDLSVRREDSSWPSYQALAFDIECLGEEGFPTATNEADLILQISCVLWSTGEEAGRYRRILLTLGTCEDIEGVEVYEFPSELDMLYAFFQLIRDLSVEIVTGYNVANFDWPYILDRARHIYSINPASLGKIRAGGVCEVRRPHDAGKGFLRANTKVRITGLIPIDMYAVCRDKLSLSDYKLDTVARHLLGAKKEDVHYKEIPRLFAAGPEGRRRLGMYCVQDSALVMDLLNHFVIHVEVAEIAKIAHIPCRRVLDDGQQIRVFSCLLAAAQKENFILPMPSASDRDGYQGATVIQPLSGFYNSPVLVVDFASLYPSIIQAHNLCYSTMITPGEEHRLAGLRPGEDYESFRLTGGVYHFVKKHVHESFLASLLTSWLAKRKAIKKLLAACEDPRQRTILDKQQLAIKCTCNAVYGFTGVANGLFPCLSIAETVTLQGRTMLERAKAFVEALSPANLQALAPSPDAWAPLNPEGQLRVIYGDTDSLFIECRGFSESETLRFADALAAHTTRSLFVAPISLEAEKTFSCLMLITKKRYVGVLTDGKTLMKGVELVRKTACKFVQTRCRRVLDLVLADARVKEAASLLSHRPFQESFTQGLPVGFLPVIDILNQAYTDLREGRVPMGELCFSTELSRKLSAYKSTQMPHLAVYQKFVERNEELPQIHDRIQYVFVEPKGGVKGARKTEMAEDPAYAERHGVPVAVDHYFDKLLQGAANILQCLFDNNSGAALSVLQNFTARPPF
# T4 sequence (P08515 whole entry): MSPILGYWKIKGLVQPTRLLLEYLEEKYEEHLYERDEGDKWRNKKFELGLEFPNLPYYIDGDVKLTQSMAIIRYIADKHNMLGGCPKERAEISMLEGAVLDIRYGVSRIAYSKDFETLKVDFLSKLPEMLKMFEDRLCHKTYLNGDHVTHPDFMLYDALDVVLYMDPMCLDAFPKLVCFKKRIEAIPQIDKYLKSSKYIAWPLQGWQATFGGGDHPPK
molecule,measurement,setting,value
EBV DNA polymerase holoenzyme: 1:1 complex of BALF5 catalytic subunit and BMRF1 processivity factor,strand-displacement activity (SDA),[1],possesses signification SDA
same,rate of incorporation,[1]; singly-primed M13mp18 single-stranded DNA circle,approximately 7200 nucleotides in 10 minutes
same,activity on oligo dG:poly dC compared to oligo dA:poly dT,oligo dG:poly dC,29 fold
same,ionic strength optimum of processive primer-dependent DNA synthesis,[2],150 mM ammonium sulfate
"O=C(O)CP(=O)(O)O [PAA, phosphonoacetic acid]",inhibition at 20000 µM,EBVpol,60%
"BALF5: 116-kDa catalytic subunit of EBV DNA polymerase with intrinsic 3′-5′ exonuclease activity, SEQ ID NO. 8",binding to GST alone,GST,very weak
same,Specific Activity,[3],1.7 micromoles of dCMP incorporation per milligram of protein per hour
same,binding to the GST-BMRF1 fusion,GST-BMRF1 fusion; 0 and 200 mM ammonium sulfate,bind poorly
same,binding to the GST-BMRF1 fusion,GST-BMRF1 fusion; PBS and 50-150 mM ammonium sulfate,bound efficiently
same,binding to GST-BMRF1(1-303),GST-BMRF1(1-303),bound
same,DNA polymerase elongation activity on activated CT DNA,"[4]; 100 mM ammonium sulfate, BALF5 alone",completely inactive
same,increase of activity on CT DNA over its activity alone in the absence of salt,"[4]; in the presence of BMRF1, 100 mM ammonium sulfate",greater than 100 fold
same,DNA polymerase elongation activity on activated CT DNA,[4]; low ionic strength,significant DNA polymerase elongation activity
ΔC303: BMRF1 with deletion of the C-terminal 101 amino acids (residues 1-303) (protein) METTQTLRFKTKALAVLSKCYDHAQTHLKGGVLQVNLLSVNYGGPRLAAVANAGTAGLISFEVSPDAVAEWQNHQSPEEAPAAVSFRNLAYGRTCVLGKELFGSAVEQASLQFYKRPQGGSRPEFVKLTMEYDDKVSKSHHTCALMPYMPPASDRLRNEQMIGQVLLMPKTASSLQKWARQQGSGGVKVTLNPDLYVTTYTSGEACLTLDYKPLSVGPYEAFTGPVAKAQDVGAVEAHVVCSVAADSLAAALSLCRIPAVSVPILRFYRSGIIAVVAGLLTSAGDLPLDLSVILFNHASEEAA,Specific Activity,[3],0.2 micromoles of dCMP incorporation per milligram of protein per hour
